# Assay results published in patent publication US9624215B2, “Amine derivative or salt thereof” (TOYAMA CHEMICAL CO., LTD., priority 2012, dated 2017).
# Legend:
# [1] = test system: TPA-induced ear edema and acanthosis in Balb/c mice; test: Mouse TPA-induced ear-swelling model; assay type: in vivo; details: topical, 240 h, 1% w/v solution, 20 μL applied to ear once a day from day 0 to day 9, female Balb/c mice, read-out: Inhibition rate of change in ear thickness on day 10
# Protocol: Seven-week-old female Balb/c mice (Charles River Laboratories Japan) were used. 20 μL of a 20 ng/mL solution of TPA (Wako Pure Chemical Industries, 162-23591) dissolved in 5% DMSO/acetone was applied to the outer side of the mouse ear on day 0, day 2, day 4, day 7 and day 9 to induce ear edema and acanthosis. The test compound was dissolved in a 5% DMSO/acetone solution (concentration: 1% w/v) and 20 μL of the resulting solution was applied to the outer side of the ear once a day from day 0 to day 9. For the control group, a 5% DMSO/acetone solution was similarly applied. The TPA solution and the test compound solution were mixed and applied on the days for TPA application (day 0, day 2, day 4, day 7 and day 9). The ear thickness was chronologically measured on days 0-4 and days 7-10 using a micrometer (Mitutoyo, MDC-25MJT). The change in ear thickness and the inhibition rate were determined by the following formulas. Change in ear thickness=(ear thickness measured on day 10)−(ear thickness measured on day 0 before TPA application) Inhibition rate (%)=100−(change in ear thickness for test compound group/change in ear thickness for control group)×100
# [2] = test system: normal human neonatal foreskin epidermal keratinocytes (NHEK-F); test: Cell proliferation inhibition test; assay type: cell-based; details: Keratinocyte, 72 h, NHEK-F cells, three days incubation, ATPlite or CellTiterGlo, read-out: IC50 (concentration of the compound at which the cell count is reduced by 50%)
# Summary of the method: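 NHEK-F keratinocytes, 2×10^3 per well in Humedia-EG2, plated overnight, then exposed to compound for three days. Cell count by ATPlite or CellTiterGlo luminescence; inhibition = 100 − (treated/untreated count)×100, IC50 as 50% reduction concentration.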
SMILES,inhibition in vivo at 1 % strength [1] [%],IC50 [2] [nM]
"Cn1ccc2cc(Nc3ncc(C4CC4)cc3C(=O)O)cc(CCC(C)(C)C)c21 [Example 595, 5-Cyclopropyl-2-((7-(3,3-dimethylbutyl)-1-methyl-1H-indol-5-yl)amino)nicotinic acid]",≥ 20,≤ 10
"O=C(O)c1cc(C2CC2)cnc1Nc1cccc2c1ccn2CC1CCC1 [Example 439, 2-((1-(cyclobutylmethyl)-1H-indol-4-yl)amino)-5-cyclopropylnicotinic acid]",≥ 20,≤ 10
"N#Cc1cccc(Cn2ccc3cc(Nc4ncc(C5CC5)cc4C(=O)O)ccc32)c1 [Example 453, 2-((1-(3-cyanobenzyl)-1H-indol-5-yl)amino)-5-cyclopropylnicotinic acid]",≥ 20,10 to 100
"Cn1ccc2cc(Nc3ncc(C4CC4)cc3C(=O)O)cc(-c3ccccc3)c21 [Example 222, 5-cyclopropyl-2-((1-methyl-7-phenyl-1H-indol-5-yl)amino)nicotinic acid]",≥ 20,≤ 10
"O=C(O)c1cc(C2CC2)cnc1Nc1ccc2c(ccn2Cc2ccccc2F)c1 [Example 458, 5-cyclopropyl-2-((1-(2-fluorobenzyl)-1H-indol-5-yl)amino)nicotinic acid]",≥ 20,≤ 10
"O=C(O)c1cc(C2CC2)cnc1Nc1ccc2c(ccn2CC2CCCCC2)c1 [Example 130, 2-((1-(cyclohexylmethyl)-1H-indol-5-yl)amino)-5-cyclopropylnicotinic acid]",≥ 20,≤ 10
"O=C(O)c1cc(C2CC2)cnc1Nc1ccc2c(ccn2Cc2cc(F)ccc2F)c1 [Example 641, 5-cyclopropyl-2-((1-(2,5-difluorobenzyl)-1H-indol-5-yl)amino)nicotinic acid]",≥ 20,≤ 10
"O=C(O)c1cc(C2CC2)cnc1Nc1ccc2c(ccn2-c2ccc(F)cc2)c1 [Example 233, 5-cyclopropyl-2-((1-(4-fluorophenyl)-1H-indol-5-yl)amino)nicotinic acid]",≥ 20,≤ 10
"O=C(O)c1cc(C2CC2)cnc1Nc1ccc2c(ccn2Cc2ccc(F)cc2F)c1 [Example 633, 5-cyclopropyl-2-((1-(2,4-difluorobenzyl)-1H-indol-5-yl)amino)nicotinic acid]",≥ 20,≤ 10
"Cc1ccc(Nc2ccc3c(ccn3Cc3ccccc3)c2)c(C(=O)O)c1 [Example 206, 2-((1-benzyl-1H-indol-5-yl)amino)-5-methylbenzoic acid]",≥ 20,≤ 10
"Cn1ccc2cc(Nc3ncc(C4CC4)cc3C(=O)O)cc(-c3ccc(F)cc3)c21 [Example 466, 5-cyclopropyl-2-((7-(4-fluorophenyl)-1-methyl-1H-indol-5-yl)amino)nicotinic acid]",≥ 20,≤ 10
"CC(C)c1cc(Nc2ncc(C3CC3)cc2C(=O)O)cc2ccn(C)c12 [Example 411, 5-cyclopropyl-2-((7-isopropyl-1-methyl-1H-indol-5-yl)amino)nicotinic acid]",≥ 20,10 to 100
"Cc1ccccc1Cn1ccc2cc(Nc3ncc(C4CC4)cc3C(=O)O)ccc21 [Example 455, 5-cyclopropyl-2-((1-(2-methylbenzyl)-1H-indol-5-yl)amino)nicotinic acid]",≥ 20,≤ 10
"CCC(CC)Cn1ccc2cc(Nc3ncc(C4CC4)cc3C(=O)O)ccc21 [Example 632, 5-cyclopropyl-2-((1-(2-ethylbutyl)-1H-indol-5-yl)amino)nicotinic acid]",≥ 20,≤ 10
"Cn1nccc1-c1cc(Nc2ncc(C3CC3)cc2C(=O)O)cc2ccn(C)c12 [Example 596, 5-cyclopropyl-2-((1-methyl-7-(1-methyl-1H-pyrazol-5-yl)-1H-indol-5-yl)amino)nicotinic acid]",≥ 20,≤ 10
"CC(C)CCn1ccc2cc(Nc3ncc(C4CC4)cc3C(=O)O)ccc21 [Example 448, 5-cyclopropyl-2-(1-isopentyl-1H-indol-5-ylamino)nicotinic acid]",≥ 20,≤ 10
Cn1cc(-c2ccccc2)c2cc(Nc3ncc(C4CC4)cc3C(=O)O)ccc21 [Example 153],≥ 20,10 to 100
"Cc1cc2c(ccn2Cc2ccccc2)cc1Nc1ncc(C2CC2)cc1C(=O)O [Example 585, 2-((1-benzyl-6-methyl-1H-indol-5-yl)amino)-5-cyclopropylnicotinic acid]",≥ 20,≤ 10

SMILES,inhibition in vivo at 1 % strength [1] [%],IC50 [2] [nM]
"O=C(O)c1cc(C2CC2)cnc1Nc1ccc2c(cnn2CC2CCCCC2)c1 [Example 543, 2-((1-(cyclohexylmethyl)-1H-indazol-5-yl)amino)-5-cyclopropylnicotinic acid]",≥ 20,≤ 10
"Cc1cc(Nc2ncc(C3CC3)cc2C(=O)O)cc2ccn(Cc3cccc(F)c3)c12 [Example 621, 5-cyclopropyl-2-((1-(3-fluorobenzyl)-7-methyl-1H-indol-5-yl)amino)nicotinic acid]",≥ 20,≤ 10
"COc1cccc(Cn2ccc3cc(Nc4ncc(C5CC5)cc4C(=O)O)ccc32)c1 [Example 237, 5-cyclopropyl-2-((1-(3-methoxybenzyl)-1H-indol-5-yl)amino)nicotinic acid]",≥ 20,10 to 100
"CS(=O)(=O)NC(=O)c1cc(C2CC2)cnc1Nc1ccc2c(ccn2Cc2ccccc2)c1 [Example 149, 2-((1-benzyl-1H-indol-5-yl)amino)-5-cyclopropyl-N-(methylsulfonyl)nicotinamide]",≥ 20,10 to 100
"O=C(O)c1cc(C2CCCC2)cnc1Nc1ccc2c(ccn2Cc2ccccc2)c1 [Example 128, 2-((1-benzyl-1H-indol-5-yl)amino)-5-cyclopentylnicotinic acid]",≥ 20,
"O=C(O)c1cc(C2CC2)cnc1Nc1ccc2c(cnn2Cc2ccccc2)c1 [Example 395, 2-((1-benzyl-1H-indazol-5-yl)amino)-5-cyclopropylnicotinic acid]",,10 to 100
"O=C(O)c1cc(Cl)ccc1Nc1ccc2c(ccn2Cc2cccc(OCCN3CCOCC3)c2)c1 [Example 296, 5-chloro-2-((1-(3-(2-morpholinoethoxyl)benzyl)-1H-indol-5-yl)amino)benzoic acid]",,10 to 100
"Cn1ccc2cc(Nc3ncc(C4CC4)cc3C(=O)O)cc(-c3cncnc3)c21 [Example 591, 5-cyclopropyl-2-((1-methyl-7-(pyrimidin-5-yl)-1H-indol-5-yl)amino)nicotinic acid]",,100 to 1000
"O=C(O)c1cc(C2CC2)cnc1Nc1cccc2c1ccn2CC1CCOC1 (stereo not shown) [Example 427, 5-cyclopropyl-2-((1-((tetrahydrofuran-3-yl)methyl)-1H-indol-4-yl)amino)nicotinic acid]",,10 to 100
"CC(C)c1cnc(Nc2ccc3c(ccn3Cc3ccccc3)c2)c(C(=O)O)c1 [Example 379, 2-((1-benzyl-1H-indol-5-yl)amino)-5-isopropylnicotinic acid]",,10 to 100
"CC(C)Cn1ncc2cc(Nc3ncc(C4CC4)cc3C(=O)O)ccc21 [Example 541, 5-cyclopropyl-2-((1-isobutyl-1H-indazol-5-yl)amino)nicotinic acid]",,10 to 100
"Cn1cc(C2CCCC2)c2cc(Nc3ncc(C4CC4)cc3C(=O)O)ccc21 [Example 614, 2-((3-cyclopentyl-1-methyl-1H-indol-5-yl)amino)-5-cyclopropylnicotinic acid]",,10 to 100
"CC(C)Cn1ccc2c(Nc3ncc(C4CC4)cc3C(=O)O)cccc21 [Example 431, 5-cyclopropyl-2-((1-isobutyl-1H-indol-4-yl)amino)nicotinic acid]",,≤ 10
"O=C(O)c1cc(C2CC2)cnc1Nc1c(F)cc2c(ccn2Cc2ccccc2)c1F [Example 554, 2-((1-benzyl-4,6-difluoro-1H-indol-5-yl)amino)-5-cyclopropylnicotinic acid]",,≤ 10
"O=C(O)c1nc(C2CC2)ccc1Nc1ccc2c(ccn2Cc2ccccc2)c1 [Example 210, 3-((1-benzyl-1H-indol-5-yl)amino)-6-cyclopropylpicolinic acid]",,10 to 100
"CC(C)Cn1c(CO)cc2cc(Nc3ncc(C4CC4)cc3C(=O)O)ccc21 [Example 175, 5-cyclopropyl-2-((2-(hydroxymethyl)-1-isobutyl-1H-indol-5-yl)amino)nicotinic acid]",,100 to 1000
"O=C(O)c1cc(Cl)cnc1Nc1ccc2c(ccn2Cc2cccc(F)c2)c1 [Example 645, 5-chloro-2-((1-(3-fluorobenzyl)-1H-indol-5-yl)amino)nicotinic acid]",,10 to 100
"Cn1ccc2cc(Nc3ncc(C4CC4)cc3C(=O)O)cc(-c3ccncc3F)c21 [Example 589, 5-cyclopropyl-2-((7-(3-fluoropyridin-4-yl)-1-methyl-1H-indol-5-yl)amino)nicotinic acid]",,10 to 100
